Source: patent US6803362B2, “Heterocyclic compounds” (Ortho-McNeil Pharmaceutical inc., priority 2001, dated 2004)

Test system: Croton Oil Induced Topical Inflammation in Mice
Assay: Croton oil induced topical inflammation in mice (ear swelling)
Format: in vivo, mouse
Details: 10 mg/kg s.c.; vs vehicle group; 6 h
Protocol: Male or female ICR derived mice weighing 22±1 g were used. Space allocation for 5 animals was 45×23×15 cm. Mice were house in APEC R cages. All animals were maintained in a controlled temperature (22° C.-24° C.) and humidity (60%-80%) environment with 12 h light/dark cycles. Free access to standard lab chow for Mice (LabDiet Rodent Diet, PMI Nutrition International, USA) and tap water was granted.
Acetone (Wako, Japan), Croton oil (Sigma, USA), Indomethacin (Sigma, USA) and Pyrogen free saline (Astar, Taiwan).
Groups of 5 ICR derived male mice weighing 22±1 g were used. […] Ear swelling was measured by Dyer model micrometer gauge 6 h after croton oil as an index of inflammation.

In the case of `CN1CCN(C(=O)c2cc3cc(Cl)ccc3[nH]2)CC1` [Compound 1, (5-Chloro-1H-indol-2-yl)-(4-methyl-piperazin-1-yl)-methanone], the “% inhib (ear swelling)” value is reported as “(−28%)”.
